US9359605B2, “Method of treating cancer by inhibition of DNA repair proteins” (Sarissa Inc., priority 2011, dated 2016)
Like-named read-outs stand apart in the source and are kept apart here. d = 2'-deoxy (DNA); m = 2'-O-methyl

What was measured:
[1] = test system: A549b cells; test: Anti-proliferative activity of a drug on A549b cells pretreated with anti-BRCA2 OLIGO/siRNA; assay type: cell-based; conditions: Homo sapiens, curves conservatively extrapolated, read-out: concentration of olaparib required to inhibit proliferation of A549b cells by 50% (IC50)
Protocol: OLIGOs were introduced into cells with the use of Lipofectamine 2000 (LFA2K) (Invitrogen, Burlington, Ontario, Canada). OLIGOs were mixed with LFA2K at a ratio of 0.2 μg/ml per 10 nM OLIGO. The mixture was prepared at 11× the final concentration to which cells were exposed, so that 200 μL was added to 2 mL of medium in which cells were plated. After incubating at room temperature for 20 minutes, according to manufacturer's instructions, the OLIGOs were added to the cell medium. The OLIGO/LFA2K mix was then incubated (37° C.) on the cells for 4 hours, after which a second volume of medium was added. Cells were then incubated for 20 hours. […]
For cells treated with the drug olaparib, for the purposes of determining whether inhibitory activity was enhanced by the OLIGO pretreatment, olaparib was added at this time, in concentrations of from 0.01 μM to 3 μM. […] Following a further 4-day incubation, the proliferation of the treated cells (fold-increase in cell number) was calculated as a percentage of that of control cells. […] As indicated in Example 1, for the purpose of determining the anti-proliferative effect of antisense OLIGOs alone, the proliferation of cells treated with antisense OLIGOs was calculated as a percent of that of cells treated with an equivalent concentration of non-complementary control OLIGO (in this case OLIGO 32). […]

[2] = test system: A549b cells; test: Proliferation of A549b cells after transfection with antisense OLIGO/siRNA (cell counting, % of control OLIGO); assay type: cell-based, human; conditions: 20 nM; compared to non-targeting OLIGO 491S; preliminary assay, FIG. 12
Protocol: Cultured cell lines were maintained in minimum essential medium a with nucleosides plus 10% fetal bovine serum and penicillin (50 units/mL)/streptomycin (50 mg/L) (growth medium). Cultures were incubated in a humidified atmosphere of 5% CO2 at 37° C. Cultured cell lines were maintained and cytotoxicity assays conducted as described previously (3). Rapidly proliferating cells were utilized for establishing cultures of experimental cells, which were allowed to plate overnight in 25-cm^2 flasks prior to manipulation. […]
OLIGOs were introduced into cells with the use of Lipofectamine 2000 (LFA2K) (Invitrogen, Burlington, Ontario, Canada). […] Following the 4-day incubation, the proliferation of the treated cells (fold-increase in cell number) was calculated as a percentage of that of control cells. […] For the purpose of determining the anti-proliferative effect of antisense OLIGOs, the proliferation of cells treated with antisense OLIGOs was calculated as a percent of that of cells treated with an equivalent concentration of non-complementary control OLIGO (in this case OLIGO 32) mixed with an equivalent amount of LFA2K.
These experiments were carried out essentially as described in Example 2, after which one volume of medium was added, and cells were further incubated for 20 hours. […] Cells were incubated for 4 days, at which time cell number was counted. […]

[3] = test system: thymidylate synthase mRNA; test: RT-qPCR of TS mRNA 24 h after OLIGO transfection of A549 cells; assay type: cell-based, human; conditions: 20 nM OLIGO, 24 h post-transfection, FIG. 16
Protocol: (§1) Briefly, A549 cells seeded at a density of 2.0×10^5 per flask were transfected with 20 nM of OLIGO specific for each target or control OLIGO using Lipofectamine 2000 as the transfection reagent. Twenty four hours post-transfection mRNA was extracted and reverse transcribed into cDNA. RT-qPCR was performed for target mRNA levels using TaqMan reagents according to established protocols.

[4] = test system: BRCA2 mRNA; test: RT-qPCR of BRCA2 mRNA 24 h after OLIGO transfection of A549 cells; assay type: cell-based, human; conditions: 20 nM OLIGO, 24 h post-transfection, FIG. 16
Protocol: as §1

| Compound | IC50 ([1]; in the absence of BR1) [nM] | IC50 ([1]; in the presence of BR1 (pretreatment)) [nM] | relative proliferation [2] | effect on TS mRNA level [3] | effect on BRCA2 mRNA level [4] |
| --- | --- | --- | --- | --- | --- |
| O=C(c1cc(Cc2n[nH]c(=O)c3ccccc23)ccc1F)N1CCN(C(=O)C2CC2)CC1 [olaparib] | ~5000 | ~50 | – | – | – |
| OLIGO 83: antisense to 3′-untranslated region of thymidylate synthase mRNA, 5′-gccaguGGCAACATccuuaa-3′ (SEQ ID NO: 25), fully phosphorothioated (antisense GCCAGUGGCAACATCCUUAA; sugars from the 5' end m6 d8 m6, all phosphorothioate, methylation of C not given here) | – | – | approximately 20% | reduce | no significant effect |
